From patent US20160084820A1, “METHODS OF TREATING OR PREVENTING PERIODONTITIS AND DISEASES ASSOCIATED WITH PERIODONTITIS” (priority 2010, published 2016)
Where two headings read alike, the source gives them in different places.

What was measured:
[1] = system: phagocytosed P. gingivalis in mouse peritoneal macrophages; assay type: cell-based, P. gingivalis ATCC 33277
Procedure: The viability of phagocytosed P. gingivalis was monitored by an antibiotic protection-based intracellular survival assay, as previously described (Wang et al., 2007, J. Immunol., 179:2349-58). Briefly, mouse peritoneal macrophages were allowed to phagocytose P. gingivalis (MOI=10:1; 5×10^6 bacteria and 5×10^5 cells) for […] at 37° C. This was followed by washing to remove extracellular nonadherent bacteria and 1-hour treatment with antibiotics (300 μg/ml gentamicin and 200 μg/ml metronidazole) to eliminate residual or extracellular adherent bacteria. The macrophages were subsequently cultured overnight (for a total of 24 hours) or for 48 hours Immediately after, the macrophages were washed and lysed in sterile distilled water, and viable counts of internalized P. gingivalis were determined by plating serial dilutions of macrophage lysates on blood agar plates subjected to anaerobic culture.
The viability of phagocytosed P. gingivalis was monitored by an antibiotic protection-based intracellular survival assay, as previously described (Wang et al., 2007, J. Immunol., 179:2349-58)). Briefly, mouse peritoneal macrophages were allowed to phagocytose P. gingivalis (at a MOI=10:1; 5×10^6 bacteria and 5×10^5 macrophages) for 30 min at 37° C. This was followed by washing to remove extracellular nonadherent bacteria and 1-hour treatment with antibiotics (300 μg/ml gentamicin and 200 μg/ml metronidazole) to eliminate residual or extracellular adherent bacteria. The macrophages were subsequently cultured overnight for a total of 24 hours Immediately after, the macrophages were washed and lysed in sterile distilled water and viable counts of internalized P. gingivalis were determined by plating serial dilutions of macrophage lysates on blood agar plates subjected to anaerobic culture.

[2] = system: GSK3β Ser9-phosphorylation; experiment: GSK3β Ser9 phosphorylation ELISA in macrophages; assay type: cell-based, mouse; settings: PKI-6-22 1 μM; PD98059 25 μM
Procedure: PKA activity in lysates of activated cells was determined using the ProFluor™ PKA assay, according to the instructions of the manufacturer (Promega) (Hajishengallis et al., 2008, PNAS USA, 105:13532-7). Phosphorylation of GSK313 on Ser9 and total GSK3β were monitored using FACE™ GSK3β ELISA kits (Active Motif).

IL-12p70 production = experiment: IL-12p70 induction in IFN-gamma-primed macrophages, ELISA; assay type: cell-based, mouse; settings: for reversal of C5a inhibition of P. gingivalis- or LPS-induced IL-12p70: C5a 50 nM
Procedure: (§1) Induction of nitric oxide production was assessed by measuring the amount of NO2− (stable metabolite of nitric oxide) in stimulated culture supernatants using a Griess reaction-based assay kit (R&D Systems), as previously performed (Hajishengallis et al., 2008, PNAS USA, 105:13532-7). Levels of cAMP in activated cell extracts were measured using a cAMP enzyme immunoassay kit (Cayman Chemical) (Liang et al., 2007, J. Immunol., 178:4811-9). C5a-induced intracellular calcium mobilization was monitored in cells (4×10^6) loaded with 1 μM Indo 1-AM in the presence of 1 μM pluronic acid, as previously described (Ali et al., 1993, J. Biol. Chem., 268:24247-54). Calcium traces were recorded in a Perkin-Elmer fluorescence spectrometer (Model 650-19) with an excitation wavelength of 355 nm and an emission wavelength of 405 nm. Induction of cytokine production in activated cell culture supernatants or in the peritoneal fluid of infected mice was determined by ELISA using kits from eBioscience or Cell Sciences. C5a levels were measured by sandwich ELISA, employing a pair of capture and biotinylated anti-05a mAbs (BD Pharmingen), according to the manufacturer's protocol.
Whether C5a inhibits P. gingivalis-induced IL-12p70 in peritoneal macrophages was investigated. Since macrophages are generally poor producers of IL-12p70 in vitro unless primed with IFN-gamma, macrophages used in these experiments were primed with IFN-gamma (0.1 μg/ml). […] The host TLR response against P. gingivalis is predominantly mediated by TLR2, both in vitro and in vivo. Therefore, whether C5a-mediated inhibition of P. gingivalis-induced IL-12p70 could involve a C5aR-TLR2 crosstalk additionally was examined.

intracellular cAMP = experiment: cAMP enzyme immunoassay in P. gingivalis-stimulated macrophages; assay type: cell-based, mouse; settings: C5aRA 1 μM; thapsigargin 1 μM; EGTA 5 mM; pertussis toxin 100 ng/ml; AMD3100 1 μg/ml; C5a 50 nM; 1 hour
nitric oxide production = experiment: NO2− (nitric oxide) production, Griess reaction-based assay, macrophages; assay type: cell-based, mouse; settings: 24 hours; for reversal of the inhibitory C5a effect on nitric oxide: SQ22536 200 μM, H89 5 μM, chelerythrin 5 μM, PKI 6-22 1 μM, KT5823 1 μM, C5a 50 nM
iNOS expression = experiment: iNOS expression, quantitative real-time PCR, macrophages; assay type: cell-based, mouse; settings: SB216763 10 μM; 8-Br-cAMP 100 μM; 4 hours
Procedure: Gene expression in resting or activated mouse macrophages was quantified using quantitative real-time PCR. Briefly, RNA was extracted from cell lysates using the PerfectPure RNA cell kit (5 Prime, Fisher) and quantified by spectrometry at 260 and 280 nm. The RNA was reverse-transcribed using the High-Capacity cDNA Archive kit (Applied Biosystems) and quantitative real-time PCR with cDNA was performed using the ABI 7500 Fast System, according to the manufacturer's protocol (Applied Biosystems). TaqMan probes, sense primers, and antisense primers for expression of a house-keeping gene (GAPDH) or iNOS (or the genes shown in FIG. 7) were purchased from Applied Biosystems.

P. gingivalis [3] = experiment: I.p. challenge model: P. gingivalis CFU, NO2− and bacteremia; assay type: in vivo, mouse
Text: All animal procedures were approved by the Institutional Animal Care and Use Committee and performed in compliance with established federal and state policies.

[4] = system: P. gingivalis-induced cytokine production; settings: C5aRA i.p. 25 pg/mouse; 5 h post-infection
Procedure: as §1
10-12 week-old mice were infected i.p. with P. gingivalis (5×10^7 CFU) and sampled by peritoneal lavage to measure production of cytokines and enumerate recovered CFU (following anaerobic growth on blood agar plates) (Hajishengallis et al., 2008, PNAS USA, 105:13532-7), as detailed in the respective figure description.
First, it was essential to determine whether C5aR signaling can regulate P. gingivalis-induced IL-12p70 production in vivo. For this purpose, wild-type mice were i.p.-administered C5aRA followed by i.p. challenge with P. gingivalis. Mice deficient in C5aR or TLR2 were similarly challenged with P. gingivalis, and all mice were sampled 5 h post-infection by peritoneal lavage.

P. gingivalis [5] = experiment: Subcutaneous titanium-coil chamber model; assay type: in vivo, mouse; settings: wild-type mice, 24 h post-infection
Procedure: Using the ‘chamber’ model, bacteria were injected into the lumen of a subcutaneously implanted titanium-coil chamber such that bacterial interactions with recruited inflammatory cells can be assessed accurately and quantitatively (Burns et al., 2006, J. Immunol., 177:8296-8300; Genco et al., 1991, Infect. Immun., 59:1255-63; and Graves et al., 2008, J. Clin. Periodontol., 35:89-105).

[6] = system: periodontal inflammatory responses; experiment: Oral Pg infection, gingival IL-1beta and TNF-alpha mRNA after local C5aRA microinjection; assay type: in vivo, mouse
Procedure: Experiments were performed to determine an effective dose of C5aRA (PMX-53) that inhibits periodontal inflammatory responses. Briefly, 0.1, 1, or 10 μg C5aRA (or a PBS control) were administered through 1-μl microinjections (using a 28.5-gauge MicroFine needle) on the mesial of the first molar and in the papillae between first and second and third molars, on both sides of the maxilla. These treatments were repeated five times at two day-intervals Immediately following each treatment, the mice were infected orally with Pg in 2% carboxymethylcellulose vehicle (or vehicle only). One week after the last infection, the gingiva were dissected and analyzed by real-time quantitative PCR for mRNA expression of IL-1beta and TNF-alpha (selected as the most typically involved in destructive periodontal inflammation).
Because the antagonist was applied before each Pg infection treatment, this approach was considered preventive. In addition, however, it was determined if C5aRA acts in a therapeutic way (i.e., applied after infection and inflammation occurs). […] The mice were euthanized three days after the last treatment.

[7] = pretreatment 1 μM C5aRA and/or 1 mM L-NAME or D-NAME, Pg with C5a 50 nM, 24 hours
[8] = C5aRA 1 μM, U0126 10 μM, wortmannin 100 nM
[9] = 1 pg applied twice weekly, four times, starting 2 weeks after five oral infections
[10] = 1 μg C5aRA microinjection before each of five Pg infections, one week after last infection

COC(=O)[C@H](N)CCCN=C(N)N[N+](=O)[O-] [D-NAME, N(G)-nitro-D-arginine methyl ester]
effect on C5a-protected P. gingivalis intracellular viability [1]: had no effect

COc1cccc(-c2cc(=O)c3ccccc3o2)c1N [PD98059]
effect on synergistic C5a + P. gingivalis Ser9-phosphorylation of GSK3β [2]: not

COC(=O)[C@@H](N)CCCNC(=N)N[N+](=O)[O-] [L-NAME, N(G)-nitro-L-arginine methyl ester]
effect on C5a-protected P. gingivalis intracellular viability [1, 7]: mimicked C5a and overrode the C5aRA effect

NC(N)=NCCC[C@H](NC(=O)COCC(c1ccccc1)c1ccccc1)C(=O)O [SB290157]
reversal of the inhibitory effect of C5a^desArg on IL-12p70 (IL-12p70 production): did not influence

O=C(O)CN(CCOCCOCCN(CC(=O)O)CC(=O)O)CC(=O)O [EGTA]
effect on the synergistic C5a effect on P. gingivalis-induced cAMP (intracellular cAMP): relatively minimal and statistically insignificant effect

c1cc(CN2CCCNCCNCCCNCC2)ccc1CN1CCCNCCNCCCNCC1 [AMD3100]
effect on the synergistic C5a effect on P. gingivalis-induced cAMP (intracellular cAMP): modestly attenuated

Nc1ncnc2c1ncn2C1CCCO1 (stereo not shown) [SQ22536]
reversal of the inhibitory C5a effect on nitric oxide (nitric oxide production): reversed

Cn1cc(C2=C(c3ccc(Cl)cc3Cl)C(=O)NC2=O)c2ccccc21 [SB216763]
P. gingivalis-induced nitric oxide production (nitric oxide production; SB216763 10 μM, 8-Br-cAMP 100 μM): mimicked the inhibitory C5a effect | P. gingivalis-induced iNOS expression (iNOS expression): mimicked the inhibitory C5a effect

C/C=C(/C)C(=O)O[C@H]1C(C)=C2[C@H]([C@@H]1OC(=O)CCCCCCC)[C@@](C)(OC(C)=O)C[C@H](OC(=O)CCC)[C@@]1(O)[C@H]2OC(=O)[C@@]1(C)O [thapsigargin]
effect on the synergistic C5a effect on P. gingivalis-induced cAMP (intracellular cAMP): abrogated

O=S(=O)(NCCNC/C=C/c1ccc(Br)cc1)c1cccc2cnccc12 [H89]
reversal of the inhibitory C5a effect on nitric oxide (nitric oxide production): reversed

acetylated phenylalanine-(ornithine-proline-(D)cyclohexylalanine-tryptophan-arginine) [C5aRA]
effect on C5a-protected P. gingivalis intracellular viability [1, 7]: counteracted the protective effect of C5a | effect on the synergistic C5a effect on P. gingivalis-induced cAMP (intracellular cAMP): totally abrogated | bacteremia (blood culture for P. gingivalis) (P. gingivalis [3]; 24 hours post-infection): no bacteremia could be detected | less P. gingivalis CFU in peritoneal lavage fluid compared to PBS control (P. gingivalis [3]; C5aRA i.p. 25 μg/mouse, 24 h post-infection): about 2 log10 units | reduction of P. gingivalis CFU in peritoneal lavage fluid vs control mice (P. gingivalis [3]; C5aRA i.p. 1 mg/Kg body weight, 24 hours post-infection): > 95% | nitric oxide production in peritoneal fluid relative to control mice (P. gingivalis [3]; C5aRA i.p., 24 hours postinfection): elevated nitric oxide production | IFN-gamma level in peritoneal fluid vs PBS-treated wild-type controls [4]: significantly higher levels | IL-12p70 level in peritoneal fluid vs PBS-treated wild-type controls [4]: significantly higher levels | IL-23 level in peritoneal fluid vs PBS-treated wild-type controls [4]: significantly higher levels | induction of IL-1beta production in peritoneal fluid [4]: inhibited | induction of IL-6 production in peritoneal fluid [4]: inhibited | induction of TNF-alpha production in peritoneal fluid [4]: inhibited | KDP128-induced IL-12p70 in the absence of exogenously added C5a (IL-12p70 production; C5aRA 1 μM): had no effect | LPS-induced IL-12p70 without C5a (IL-12p70 production; [8]): not seen | P. gingivalis-induced IL-12p70 without exogenous C5a (IL-12p70 production; [8]): significantly enhanced | reversal of C5a inhibition of P. gingivalis- or LPS-induced IL-12p70 (IL-12p70 production; [8]): completely reversed | reversal of the inhibitory effect of C5a^desArg on IL-12p70 (IL-12p70 production; C5a^desArg 50 nM, C5aRA 1 μM, A8^Δ71-73 1 μM, SB290157 5 μM): full reversal | Pg viable counts in chamber fluid (P. gingivalis [5]): reduced Pg viable counts | induction of IL-1beta mRNA in gingiva, therapeutic [6, 9]: significantly reversed induction | induction of TNF-alpha mRNA in gingiva, therapeutic [6, 9]: significantly reversed induction | induction of IL-1beta mRNA in gingiva, preventive [6, 10]: highly effective in inhibiting induction | induction of TNF-alpha mRNA in gingiva, preventive [6, 10]: highly effective in inhibiting induction | efficacy of 1 μg dose compared with 10-fold higher dose ([6]; IL-1beta and TNF-alpha mRNA, preventive): not significantly different

pertussis toxin
effect on the synergistic C5a effect on P. gingivalis-induced cAMP (intracellular cAMP): Significant reversal

N#CC(=C(/N)Sc1ccccc1N)/C(C#N)=C(\N)Sc1ccccc1N [U0126]
LPS-induced IL-12p70 without C5a (IL-12p70 production): appeared to up-regulate | P. gingivalis-induced IL-12p70 without exogenous C5a (IL-12p70 production; [8]): appeared to up-regulate | reversal of C5a inhibition of P. gingivalis- or LPS-induced IL-12p70 (IL-12p70 production; [8]): abrogated

PKI 6-22: peptide inhibitor of PKA
reversal of the inhibitory C5a effect on nitric oxide (nitric oxide production): reversed | effect on synergistic C5a + P. gingivalis Ser9-phosphorylation of GSK3β [2]: inhibited
